Laboratory results as given in patent US4594238A (Regents of University of Minnesota, priority 1984, dated 1986).
Read-outs that look alike come from different tables or passages of the source.

How the values were obtained:
Rat mammary tumor 13762 = test: Comparative tumor response to DDP with and without NaDDTC rescue, Example 2; format: in vivo, Female F344 (Fischer) rats
Method: Female F344 (Fischer) rates, initial weight 100-150 g, were obtained from the Charles River Breeding Laboratory, Wilmington, MA. They were housed in methacrylate cages and given Purina rat chow and water ad libitum for at least one week. Lean weight of the rats were 150 g at the onset of experiments unless otherwise noted.
Mammary Tumor 13762 was obtained in the form of an implanted tumor in a female F344 rat. All intravenous injections were carried out under brief ether anesthesia.
Tumor inoculation was carried out as follows: two rats bearing tumors having a mean diameter of 2.5-3.5 cm were sacrificed using ether anesthesia. The tumors were excised immediately, finely minced, combined, and resuspended in 20-40 ml of normal saline. This suspension was filtered through a gauze pad to remove coarse pieces of tissue and the resulting suspension inoculated subcutaneously (0.2-0.5 ml/injection) into the left flank of each rat.

[1] = after DDP; cited from earlier work
[2] = Platinum excretion kinetics / platinum accumulation after DDP; format: in vivo; settings: four rats
Method: Platinum excretion kinetics were measured in four animals by measuring urinary platinum levels every 30 minutes for 4 hours and then every 2 hours for an additional 12 hours. Urinary platinum concentration declined to <10% of maximal concentration within 1.5 hours and >95% of the platinum excreted by the kidneys had appeared in the urine by this time.

[3] = mannitol diuresis coupled with intravenous prehydration, humans; cited from earlier work
[4] = mannitol diuresis coupled with intravenous prehydration, dogs; cited from earlier work

Structure (SMILES)	Other (non-relapsed) rats through day 50 (Rat mammary tumor 13762; DDP 2 mg/kg i.v., control, n=8)	Rats with relapse between days 25 and 30 (Rat mammary tumor 13762; DDP 2 mg/kg i.v., control, n=8)	Rats bearing tumors at day 24 (Rat mammary tumor 13762; DDP 2 mg/kg without rescue)	Tumor-free rats at day 24 (Rat mammary tumor 13762; DDP 2 mg/kg without rescue)	Mean tumor diameter at day 30 (Rat mammary tumor 13762; DDP 2 mg/kg without rescue, six rats)	Mean minimum tumor diameter (Rat mammary tumor 13762; DDP 2 mg/kg without rescue, six tumor-bearing rats, day 24)	Tumor-free rats by day 28 (Rat mammary tumor 13762; DDP 8 mg/kg, unrescued)	Animals with spontaneous relapse at the original site (Rat mammary tumor 13762; after DDP)	Time of spontaneous relapse after DDP administration (Rat mammary tumor 13762; rat, in vivo)	Time of maximal platinum accumulation (renal tubule) [1]	Fraction of kidney-excreted platinum in the urine by […] [2]	Urinary platinum concentration within […], of maximal concentration [2]	Amelioration of acute platinum toxicity [3]	Amelioration of acute platinum toxicity [4]
N.N.[Cl][Pt][Cl] [DDP, cis-dichlorodiammineplatinum(II), reference compound]	essentially free of tumor through day 50	2/8	6/8	2/8	2.4 cm	1.6 cm	3/8	25-75%	approximately 15 days	30 to 60 min	> 95%	< 10%	–	–
OC[C@@H](O)[C@@H](O)[C@H](O)[C@H](O)CO [mannitol]	–	–	–	–	–	–	–	–	–	–	–	–	ameliorate acute toxicity	ameliorate acute toxicity
